This is an account of results in patent publication US7803801B2, “Aminopyridine compounds having Syk inhibitory activity” (Japan Tobacco, Inc., priority 2005, dated 2010).

The subject of assay [1] is cultured human mast cells. Put plainly: Degranulation inhibition test using cultured human mast cells (IgE cross-linking, β-Hexosaminidase release). The note with it: cultured human mast cells, read-out: human degranulation ave. IC50. The format is cell-based. The essentials:
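Degranulation was triggered by anti-hIgE (10 μg/mL final, 30 min, 37 °C) after a 10-min compound pretreatment (DMSO 0.1%) of cord-blood CD34+-derived mast cells primed 5 days with IL-4 and IgE. β-Hexosaminidase in supernatant was measured with p-nitrophenyl-GlcNAc substrate (A405), expressed against water-lysed total; IC50 (M).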

The target in assay [2] is GST-Syk Full Protein (human) (Homo sapiens, UniProt P43405). Nature of the assay: Syk kinase inhibition test (HTRF method). The assay is classed as biochemical. The method in brief: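 HTRF read-out: after EDTA termination and 1 h with XL665-streptavidin and Eu-anti-phosphotyrosine, the 665/620 nm ratio was measured. The reaction ran 30 min at 20–25 °C with final 6.4 nM human GST-Syk, 250 nM biotinylated peptide, 100 μM ATP, pH 7.0 HEPES buffer, 2% DMSO.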

Where [3] appears, read: Mast cell, Tables 1-x, compounds A.
Where [4] appears, read: Tables 1-x, compounds A, read-out: sykHTRF ave IC50.
Where [5] appears, read: Mast cell, anti-hIgE stimulation, β-Hexosaminidase index, average.
[6] abbreviates: HTRF, 100 μM ATP, 30 min room temperature, average, read-out: sykHTRF ave IC50.
The mark [7] stands for this setting: Mast cell, Tables 2-x, thiophene compounds B.
[8] abbreviates: Tables 2-x, thiophene compounds B, read-out: sykHTRK ave IC50.

Like-named read-outs stand apart in the source and are kept apart here.

As to `COCCN(C)c1ncc(-c2cccc(Nc3cc(C)ccn3)n2)s1` [Compound A-520, N-(2-methoxyethyl)-N-methyl-N-{5-[6-(4-methylpyridin-2-ylamino)pyridin-2-yl]thiazol-2-yl}amine], the IC50 in assay [1] (setting [3]) was 100 to 1000 nM; in assay [2] (setting [4]), less than 100 nM.
Taken in the same sequence, the figures for `Cc1ccnc(Nc2cccc(-c3cnc(N(C)Cc4nc(C(=O)O)cs4)s3)n2)c1` [Compound A-609, 2-[(N-methyl-N-{5-[6-(4-methylpyridin-2-ylamino)pyridin-2-yl]thiazol-2-yl}amino)methyl]thiazole-4-carboxylic acid] were more than 1000 nM and less than 100 nM.
On to `CNC(=O)COCc1ncc(-c2cccc(Nc3cc(C)ccn3)n2)s1` [Compound A-367], for which the IC50 in assay [1] (setting [5]) and in assay [2] (setting [6]) was 100 to 1000 nM each time.
`CC(=O)Nc1ccc(CCc2ncc(-c3cccc(Nc4cc(C)ccn4)n3)s2)cc1` [Compound A-220]: the half-maximal inhibitory concentration (IC50) in assay [1] (setting [5]) and in assay [2] (setting [6]) was 100 to 1000 nM in each case.
For `CC(=O)c1ccc(-c2cccc(Nc3cc(C)ccn3)n2)s1` [Compound B-1, 1-{5-[6-(4-methylpyridin-2-ylamino)pyridin-2-yl]thiophen-2-yl}ethanone], the IC50 in assay [1] (setting [7]) was more than 1000 nM; in assay [2] (setting [8]) it was less than 100 nM.
Take `Cc1ccnc(Nc2cccc(-c3cnc(N4CCc5c(cccc5C(=O)O)C4)s3)n2)c1` [Compound A-582, 2-{5-[6-(4-methylpyridin-2-ylamino)pyridin-2-yl]thiazol-2-yl}-1,2,3,4-tetrahydroisoquinoline-5-carboxylic acid]: the IC50 in assay [1] (setting [3]) was more than 1000 nM; in assay [2] (setting [4]) it was less than 100 nM.
Regarding `CNC(=O)[C@H]1CC[C@H](c2ncc(-c3cccc(Nc4cc(C)ccn4)n3)s2)CC1` [Compound A-336, N-methyl-trans-4-{5-[6-(4-methylpyridin-2-ylamino)pyridin-2-yl]thiazol-2-yl}cyclohexanecarboxamide], the results for the IC50 in assay [1] (setting [5]) and in assay [2] (setting [6]) were 100 to 1000 nM and less than 100 nM, respectively.
As for `Cc1ccnc(Nc2cccc(-c3cnc(N(C)C4CCN(C(=O)CO)CC4)s3)n2)c1` [Compound A-459, 2-hydroxy-1-[4-(N-methyl-N-{5-[6-(4-methylpyridin-2-ylamino)pyridin-2-yl]thiazol-2-yl}amino)piperidin-1-yl]ethanone], the half-maximal inhibitory concentration (IC50) in assay [1] (setting [3]) was 100 to 1000 nM; in assay [2] (setting [4]) it was less than 100 nM.
On to `COc1ccnc(Nc2cccc(-c3cnc(N4CCOCC4)s3)n2)c1` [Compound A-422, N-(4-methoxypyridin-2-yl)-N-{6-[2-(morpholin-4-yl)thiazol-5-yl]pyridin-2-yl}amine], for which the half-maximal inhibitory concentration (IC50) in assay [1] (setting [3]) was 100 to 1000 nM; in assay [2] (setting [4]) it was less than 100 nM.
`Cc1ccnc(Nc2cccc(-c3cnc([C@@H]4CCC(=O)N4)s3)n2)c1` [Compound A-55, (S)-5-{5-[6-(4-methylpyridin-2-ylamino)pyridin-2-yl]thiazol-2-yl}pyrrolidin-2-one]: the IC50 is 100 to 1000 nM in assay [1] (setting [5]) and less than 100 nM in assay [2] (setting [6]).
For `O=C1CC[C@@H](c2ncc(-c3cccc(Nc4cc(Cl)ccn4)n3)s2)N1` [Compound A-323, (S)-5-{5-[6-(4-chloropyridin-2-ylamino)pyridin-2-yl]thiazol-2-yl}pyrrolidin-2-one] the same measures were less than 100 nM and less than 100 nM.
On to `Cc1ccnc(Nc2cccc(-c3cnc(N(C)[C@H]4CC[C@@H](CC(=O)O)CC4)s3)n2)c1` [Compound A-611, [cis-4-(N-methyl-N-{5-[6-(4-methylpyridin-2-ylamino)pyridin-2-yl]thiazol-2-yl}amino)cyclohexyl]acetic acid], for which the IC50 in assay [1] (setting [3]) was 100 to 1000 nM; in assay [2] (setting [4]), less than 100 nM.
`CCOC(=O)c1cc(Nc2cc(C)ccn2)nc(-c2ccc(C(C)=O)s2)c1` [Compound B-77]: the concentration for half-maximal inhibition (IC50) in assay [1] (setting [7]) and in assay [2] (setting [8]) was more than 1000 nM in each case.
As to `Cc1ccnc(Nc2cccc(-c3cnc([C@@H]4CN(C)C(=O)O4)s3)n2)c1` [Compound A-405], the IC50 in assay [1] (setting [3]) and in assay [2] (setting [4]) was 100 to 1000 nM each time.
For the compound `COc1ccnc(Nc2cccc(-c3cnc([C@H]4CC[C@H](C(N)=O)CC4)s3)n2)c1` [Compound A-339, trans-4-{5-[6-(4-methoxypyridin-2-ylamino)pyridin-2-yl]thiazol-2-yl}cyclohexanecarboxamide], the half-maximal inhibitory concentration (IC50) in assay [1] (setting [5]) and in assay [2] (setting [6]) was less than 100 nM throughout.
As for `Cc1ccnc(Nc2cccc(-c3cnc(C4CCCC(C(=O)N5CCC(O)CC5)C4)s3)n2)c1` (stereo not drawn) [Compound A-271], the IC50 lay in the range of 100 to 1000 nM in assay [1] (anti-hIgE stimulation, β-Hexosaminidase index, average) and 100 to 1000 nM in assay [2] (setting [6]).
As for `COCCO/N=C(\C)c1ccc(-c2cccc(Nc3cc(C)ccn3)n2)s1` [Compound B-46], the IC50 in assay [1] (setting [7]) was more than 1000 nM; in assay [2] (setting [8]), 100 to 1000 nM.
For `Cc1ccnc(Nc2cccc(-c3ccc(C(=O)NCCN)s3)n2)c1` [Compound B-43, N-(2-aminoethyl)-5-[6-(4-methylpyridin-2-ylamino)pyridin-2-yl]thiophene-2-carboxamide] the same measures were more than 1000 nM and less than 100 nM.
For `Cc1ccnc(Nc2cccc(-c3ccc(C(C)N)s3)n2)c1` (stereo not drawn) [Compound B-92] the same measures were 100 to 1000 nM and 100 to 1000 nM.
On to `Cc1ccnc(Nc2cccc(-c3ccc(C(=O)NCCO)s3)n2)c1` [Compound B-24], for which the half-inhibitory concentration (IC50) in assay [1] (setting [7]) and in assay [2] (setting [8]) was 100 to 1000 nM throughout.
For `Cc1ccnc(Nc2cccc(-c3cnc(N4CCN(C(=O)OC(C)(C)C)CC4)s3)n2)c1` [Compound A-403], the IC50 in assay [1] (setting [3]) and in assay [2] (setting [4]) was more than 1000 nM throughout.
On to `Cc1ccnc(Nc2cccc(-c3cnc(N(C)[C@H]4CN[C@H](C(=O)O)C4)s3)n2)c1` [Compound A-579, (2S,4R)-4-(N-methyl-N-{5-[6-(4-methylpyridin-2-ylamino)pyridin-2-yl]thiazol-2-yl}amino)pyrrolidine-2-carboxylic acid], for which the results for the IC50 in assay [1] (setting [3]) and in assay [2] (setting [4]) were more than 1000 nM and less than 100 nM, respectively.
For `Cc1ccnc(Nc2cccc(-c3cnc(CN4C(=O)CC(C)(C)CC4=O)s3)n2)c1` [Compound A-385], the half-inhibitory concentration (IC50) in assay [1] (setting [3]) and in assay [2] (setting [4]) was 100 to 1000 nM in each case.
Regarding `Cc1ccnc(Nc2cccc(-c3cnc(N4CCN(C(=O)C5CCC(O)CC5)CC4)s3)n2)c1` (stereo not drawn) [Compound A-413], the IC50 in assay [1] (setting [3]) and in assay [2] (setting [4]) was 100 to 1000 nM each time.
Turning to `Cc1ccnc(Nc2cccc(-c3cnc(N(CCO)CCO)s3)n2)c1` [Compound A-544, 2-(N-(2-hydroxyethyl)-N-{5-[6-(4-methylpyridin-2-ylamino)pyridin-2-yl]thiazol-2-yl}amino)ethanol], the half-inhibitory concentration (IC50) in assay [1] (setting [3]) and in assay [2] (setting [4]) was less than 100 nM throughout.
In the case of `Cc1ccnc(Nc2cccc(-c3cnc(CC4CCC(C(=O)N5CCC(O)CC5)CC4)s3)n2)c1` (stereo not drawn) [Compound A-269], the IC50 in assay [1] (setting [5]) and in assay [2] (setting [6]) was 100 to 1000 nM in each case.
As to `Cc1ccnc(Nc2cccc(-c3cc(C)c(C(C)O)s3)n2)c1` (stereo not drawn) [Compound B-70], the IC50 in assay [1] (setting [7]) and in assay [2] (setting [8]) was 100 to 1000 nM throughout.
Regarding `Cc1ccnc(Nc2cccc(-c3cnc(Cc4ccc(C(=O)N5C[C@@H](O)[C@@H](O)C5)cc4)s3)n2)c1` [Compound A-244], the IC50 in assay [1] (setting [5]) and in assay [2] (setting [6]) was 100 to 1000 nM in each case.
Take `Cc1ccnc(Nc2cccc(-c3cnc(COCC(=O)N4C[C@H](NCc5ccccc5)[C@@H](O)C4)s3)n2)c1` [Compound A-399]: the half-maximal inhibitory concentration (IC50) in assay [1] (setting [3]) and in assay [2] (setting [4]) was more than 1000 nM throughout.
For the compound `CC(=O)N1CCC(Cc2ncc(-c3cccc(Nc4cc(C)ccn4)n3)s2)CC1` [Compound A-328], the IC50 in assay [1] (setting [5]) and in assay [2] (setting [6]) was 100 to 1000 nM throughout.

A word on the IC50: it is the concentration that inhibits the measured activity by half.
